Measurements taken from patent US20210251955A1, “PREVENTION OF AGE RELATED CLONAL HEMATOPOIESIS AND DISEASES ASSOCIATED THEREWITH” (Yeda Research and Development Co. Ltd., priority 2018, published 2021).
Entries after “also recorded” stand apart in the source; their conditions may differ.

Key:
[1] = test system: K562 cells (parental, SF3B1^K700E, SRSF2^P95H); test: RNA-sequencing of parental K562 and isogenic SF3B1^K700E and SRSF2^P95H lines, differential splicing; format: cell-based; details: for Splicing changes relative to DMSO treatment: at the IC50 of each drug in parental K562 cells, regardless of mutation status
Text: (§1) FIGS. 5A-D illustrate the preferential response of spliceosomal mutant hematopoietic cells to indisulam. (FIG. 5A) IC50 plots of isogenic K562 (left) and NALM-6 (right) cells to indisulam. These are cell with introduction of a spliceosomal gene mutation into the endogenous locus. (FIG. 5B) Western blots of RBM39 in the K562 cells from (FIG. 5A) at increasing doses of indisulam. (FIG. 5C) Log10 IC50 waterfall plots of response of AML cell lines with naturally occurring mutations in splicing factors to indisulam. Red bars represent cells with naturally occurring mutations in splicing factors. (FIG. 5D) Bar plot of number of differential splicing events across parental, SF3B1^K700E/WT, and SRSF2^P95H/WT K562 cells. The numbers above each bar indicate number of differentially spliced events.
Identification and Quantification of Differential Splicing
Isoform ratios for all alternative splicing events were quantified using MISO v2.0. Constitutively spliced exons and introns were quantified using junction-spanning reads. The conditional knockin and knockout mice were compared in a pair-wise manner, and for each pair the analysis was restricted to splicing events with 20 or more reads supporting either or both isoforms, and where the event was alternatively spliced in the sample pair. […] The human AML samples were analyzed by calculating the median isoform ratios across all 28 SRSF2 wildtype samples, and comparing that in a pair-wise manner to each SRSF2 mutant sample, using the same methodology as for the knockin and knockout mice. The Mx1-Cre^+Srsf2^+/+ or Mx1-Cre^+Srsf2^P95H/+E7107-treated mice were compared in a pair-wise manner against the median isoform ratios of their vehicle-treated counterparts, using the same methodology. For the MLL-AF9 AML transformed mice there were sufficient replicates to do a group-based comparison within the Srsf2P95H and wildtype genotypes individually (N=5 for each genotype-treatment combination). E7107- and vehicle-treated mice were compared in a two-sided Wilcoxon rank-sum test, using the total number of isoform reads within each treatment group.
In parallel, RNA-seq was carried out of the same cell lines treated with E7107, a small molecule that inhibits splicing through impeding binding of SF3B1 to the branch point [Finci et al., Genes & Dev. (2018) 32: 309-320].
Thus, both genetic as well pharmacologic degradation of RBM39 disrupts splicing as well as other pathways required for leukemogenicity.

[2] = test system: spliceosomal-mutant leukemias; details: PDX, Lee et al. Nat Med (2016); cited from earlier work
spliceosomal-mutant AML = details: Lee et al. Nat Med (2016); cited from earlier work
RBM39 = molecular target: T1, RBM39 (Homo sapiens, UniProt Q14498+Q66K64); test: RBM39 protein levels (Western blot) in isogenic leukemia cell lines; format: cell-based
T1 construct: endogenous in cells; host or cells: isogenic K562 / NALM-6 (and TF-1) leukemia cells, wild type or with knock-in of spliceosomal gene mutations
Protocol: (§2) (FIG. 4A) Sulfonamides bridge RBM39 to the CUL4-DDB1-DDA1-DCAF15 E3 ubiquitin ligase complex, leading to polyubiquitination and proteasomal degradation of RBM39. IC50 curves of the sulfonamide E7820 in isogenic (FIG. 4B) K562 and (FIG. 4C) NALM6 WT or mutant for SF3B1. (FIG. 4D) Western blots of RBM39 levels+[…] of the sulfonamides Indusulam or E7820 from the cells in (FIG. 4C).
as §1
The effects of indisulam and the sulfonamide analogue, E7820, were first examined across a panel of 18 genetically diverse AML cell lines. […]

[3] = test system: panel of 18 genetically diverse AML cell lines; test: Cell viability upon sulfonamide exposure across a panel of 18 AML cell lines; format: cell-based
Text: (§3) The effects of indisulam and the sulfonamide analogue, E7820, were first examined across a panel of 18 genetically diverse AML cell lines.

[4] = test system: isogenic K562, TF-1 and NALM-6 cells expressing mutations in SF3B1, SRSF2, U2AF1; test: Growth inhibition of isogenic leukemia lines with or without spliceosomal hotspot mutations; format: cell-based; details: isogenic K562, TF-1, NALM-6
Protocol: as §2, §1, §3

parental K562 cells = test: IC50 in parental K562 cells; format: cell-based; details: Homo sapiens
[5] = test system: Srsf2^P95H/WT MLL-AF9 AML cells; test: In vitro viability (MTS) of isogenic murine MLL-AF9 AML cells, Srsf2 WT vs Srsf2 mutant; format: cell-based
Text: FIGS. 1A-E illustrate the effects of PRMT inhibition on splicing. (FIG. 1A) Diagram of the role of PRMT5 and the type I PRMTs in splicing regulation. PRMTs methylate arginines on splicing proteins to promote spliceosome assembly and are required for proper splicing function. IC50 curves of spliceosomal mutant acute myeloid leukemia cells or their WT counterparts exposed to (FIG. 1B) the PRMT5 inhibitor GSK591 or (FIG. 1C) the PRMT1 inhibitor MS-023. Western blots of (FIG. 1D) symmetric dimethyl arginine (SDMA) or (FIG. 1E) asymmetric dimethyl arginine (ADMA) from the cells in (FIG. 1B) and […] respectively.
FIG. 2 illustrates drug sensitivity of AML cells with SMMs or partial loss of PRMT5 to inhibitors of splicing, PRMTs, or LSD1. MLL-AF9 Srsf2^WT/WT; MLL-AF9 Srsf2^P95H/WT or MLL-AF9 Prmt5^+/− cells were treated for 7 days with the indicated compounds in 384 wells (5 increasing concentrations per compound). Viability at day 7 was scored by MTS assay and reported as the ratio over control treated cells (with equivalent dilution of DMSO). The experiment was conducted in biological triplicate, and each individual run was repeated in technical triplicate. […]
Of note, the SF3B1 inhibitor, E7107, was used in the same assays as a positive control. […] Viability at day 7 was scored by MTS assay and reported as the ratio over control treated cells (with equivalent dilution of DMSO). […]

[6] = test system: SF3B1 as well as SRSF2-mutant AML and chronic myelomonocytic leukemia (CMML); details: Seiler et al., Nature Medicine (2018); cited from earlier work

In the case of `CC[C@H](O)[C@@H](C)[C@H]1O[C@@H]1C[C@@](C)(O)/C=C/C=C(\C)[C@H]1OC(=O)C[C@H](O)CC[C@@](C)(O)[C@@H](OC(=O)N2CCN(C3CCCCCC3)CC2)/C=C/[C@@H]1C` [E7107], the “Splicing changes relative to DMSO treatment” value [1] is given as “increased cassette exon skipping and intron retention”, the Eradication of leukemia [2] is given as “complete eradication could not be achieved” and the “Human leukemic cell burden, mutant versus WT” value [2] is given as “greater reduction in human leukemic cell burden”. The “Sensitivity of spliceosomal-mutant AML over isogenic WT in vivo” value (spliceosomal-mutant AML) was “differentially sensitive”.
In the case of `Cc1ccc(NS(=O)(=O)c2cccc(C#N)c2)c2[nH]cc(C#N)c12` [E7820], the “Degradation of RBM39” value (RBM39) is reported as “dose-dependent degradation of RBM39”, the “Differential splicing events in SF3B1^K700E cells versus SF3B1 wild-type” value ([1]; 1 μM E7820) is reported as “greater number of differential splicing events” and the “Splicing of SUPT6H, hnRNPH and SRSF10 mRNAs” value ([1]; E7820 exposure) is reported as “intron retention that was most pronounced in spliceosomal mutant cells”. For the same compound, the “Splicing changes relative to DMSO treatment” value [1] was “increased cassette exon skipping and intron retention”, the “Changes in splicing, E7820 versus E7107” value ([1]; equipotent non-toxic doses, within each cell type and splicing category) was “greater changes in splicing” and the “Sensitivity (cell viability) of most cell lines” value [3] was “sub-micromolar sensitivity”. The “Preferential sensitivity of spliceosomal mutant cells to growth inhibition over wild-type” value [4] was “preferentially sensitive” and the IC50 (parental K562 cells) was 1000 nM.
For `O=C(NC[C@H](O)CN1CCc2ccccc2C1)c1ccnc(NC2CCC2)c1` [GSK591], the “Sensitivity of Srsf2-mutant cells versus wildtype” value [5] was “more sensitive”.
With `CC(C)Oc1ccc(-c2c[nH]cc2CN(C)CCN)cc1` [MS-023] the “Sensitivity of Srsf2-mutant cells versus wildtype” value [5] was “more sensitive”.
In the case of `NS(=O)(=O)c1ccc(S(=O)(=O)Nc2cccc3c(Cl)c[nH]c23)cc1` [indisulam], the “Sensitivity (cell viability) of most cell lines” value [3] is reported as “sub-micromolar sensitivity” and the “Preferential sensitivity of spliceosomal mutant cells to growth inhibition over wild-type” value [4] is reported as “preferential effects; also recorded: preferentially sensitive”.
For H3B-8800, the “Preferential effects in spliceosomal-mutant disease” value [6] is given as “preferential effects” and the Splicing fidelity [6] is given as “dose-dependent reductions in splicing fidelity”.
